Active and inactive are the calls of the source.
Assays:
Cytochrome P450 2C19 = Cytochrome P450 2C19 (Homo sapiens, UniProt P33261); assay: Cytochrome panel assay with activity outcomes. Panel member name: p450-cyp2c19 Compounds with AC50 equal or less than 10 uM are considered active; type: functional; details: read-out: AC50
Cytochrome P450 1A2 = molecular target: T1, Cytochrome P450 1A2 (Homo sapiens, UniProt P05177);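 further: PubChem cytochrome P450 panel assay, CYP1A2 panel member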
T1 sequence (P05177 whole entry): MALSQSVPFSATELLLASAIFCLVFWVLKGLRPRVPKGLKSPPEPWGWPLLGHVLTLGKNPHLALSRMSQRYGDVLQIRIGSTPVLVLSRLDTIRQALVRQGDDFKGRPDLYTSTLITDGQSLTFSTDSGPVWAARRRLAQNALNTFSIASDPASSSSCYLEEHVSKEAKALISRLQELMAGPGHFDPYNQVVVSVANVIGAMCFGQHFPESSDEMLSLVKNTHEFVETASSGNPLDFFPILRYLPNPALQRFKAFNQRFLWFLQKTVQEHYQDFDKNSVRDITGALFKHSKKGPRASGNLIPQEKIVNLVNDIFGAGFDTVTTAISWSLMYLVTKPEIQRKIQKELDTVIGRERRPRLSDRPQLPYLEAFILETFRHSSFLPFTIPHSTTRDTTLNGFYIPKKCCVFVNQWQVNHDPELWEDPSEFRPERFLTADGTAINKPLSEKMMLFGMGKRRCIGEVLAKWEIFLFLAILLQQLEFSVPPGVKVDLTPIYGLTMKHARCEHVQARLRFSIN

Cytochrome P450 2C9 = Cytochrome P450 2C9 (Homo sapiens, UniProt P11712)
Cytochrome P450 2C9, sequence (P11712 whole entry): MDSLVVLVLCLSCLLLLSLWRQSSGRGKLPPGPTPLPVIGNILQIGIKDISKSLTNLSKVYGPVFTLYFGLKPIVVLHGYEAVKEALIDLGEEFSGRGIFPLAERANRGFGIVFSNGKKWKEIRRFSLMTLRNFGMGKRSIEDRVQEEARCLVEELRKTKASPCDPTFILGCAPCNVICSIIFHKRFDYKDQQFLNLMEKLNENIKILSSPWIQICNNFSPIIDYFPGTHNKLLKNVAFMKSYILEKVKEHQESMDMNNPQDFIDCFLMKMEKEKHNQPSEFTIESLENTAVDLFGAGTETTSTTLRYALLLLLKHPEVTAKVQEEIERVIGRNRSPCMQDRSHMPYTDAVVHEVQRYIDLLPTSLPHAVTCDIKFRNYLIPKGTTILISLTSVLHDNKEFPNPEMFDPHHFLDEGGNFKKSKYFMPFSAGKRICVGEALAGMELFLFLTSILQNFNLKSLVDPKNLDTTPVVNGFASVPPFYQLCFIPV

[1] = Luminescence Cell-Based Dose Confirmation HTS to Identify Activators of 5'UTR Stem-Loop Driven Alpha-Synuclein mRNA Translation in H4 Neuroglioblastoma Cells. [Related pubchem assays: 1829 (Project Summary), 1814 (Primary HTS)]; type: functional
[2] = Luminescence Cell-Based Dose Response HTS to Identify Activators of Luciferase Translation or Activity in H4 […] Cells. [Related pubchem assays: 1829 (Project Summary), 1814 (Primary HTS)]; type: functional
H4 = assay: Luminescence Cell-Based Dose Response HTS to Identify Activators of 5'UTR Stem-Loop Driven Prion Protein mRNA Translation in H4 Neuroglioblastoma Cells. [Related pubchem assays: 1829 (Project Summary), 1814 (Primary HTS)]; type: functional; details: Homo sapiens
Cytochrome P450 3A4 = Cytochrome P450 3A4 (Homo sapiens, UniProt P08684);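 further: CYP3A4 tested as one member of a cytochrome P450 panel screen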
Cytochrome P450 3A4, sequence (P08684 whole entry): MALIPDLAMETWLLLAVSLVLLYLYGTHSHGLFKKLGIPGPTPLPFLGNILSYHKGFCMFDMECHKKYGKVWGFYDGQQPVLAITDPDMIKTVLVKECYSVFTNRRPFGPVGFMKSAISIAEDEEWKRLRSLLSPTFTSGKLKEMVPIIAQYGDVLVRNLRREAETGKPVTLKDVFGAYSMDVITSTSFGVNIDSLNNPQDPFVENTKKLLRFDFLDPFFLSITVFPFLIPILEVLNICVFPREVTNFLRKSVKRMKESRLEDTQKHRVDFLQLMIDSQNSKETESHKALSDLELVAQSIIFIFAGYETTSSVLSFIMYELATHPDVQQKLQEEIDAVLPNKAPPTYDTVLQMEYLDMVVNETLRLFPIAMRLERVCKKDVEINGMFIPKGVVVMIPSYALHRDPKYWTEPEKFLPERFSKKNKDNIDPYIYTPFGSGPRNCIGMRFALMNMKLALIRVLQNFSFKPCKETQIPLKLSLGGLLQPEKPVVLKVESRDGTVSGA

[3] = NIH-3T3 fibroblast cytotoxicity, dose response, cytotoxicity control, cell-based, fluorescence, Alamar Blue, secondary assay (AID 2327); type: functional;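 further: NIH-3T3 mouse fibroblasts cultured with fluconazole at 8 µg/mL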
[4] = C. albicans growth with fluconazole, confirmation, fluorescence, retest (AID 2467); type: functional, cell-based
[5] = molecular target: T2, Heat shock factor protein 1 (Mus musculus, UniProt P38532); assay: inhibition of MG132-induced HSE-luciferase signal, confirmation, cell-based, NIH3T3, luminescence, dose retest (AID 2382); type: functional;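 further: NIH3T3 fibroblasts with HSF1-driven luciferase reporter stressed by proteasome inhibitor MG132; luminescence from HSF1-driven luciferase expression after 8 hours of MG132 stress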
T2 sequence (P38532 whole entry): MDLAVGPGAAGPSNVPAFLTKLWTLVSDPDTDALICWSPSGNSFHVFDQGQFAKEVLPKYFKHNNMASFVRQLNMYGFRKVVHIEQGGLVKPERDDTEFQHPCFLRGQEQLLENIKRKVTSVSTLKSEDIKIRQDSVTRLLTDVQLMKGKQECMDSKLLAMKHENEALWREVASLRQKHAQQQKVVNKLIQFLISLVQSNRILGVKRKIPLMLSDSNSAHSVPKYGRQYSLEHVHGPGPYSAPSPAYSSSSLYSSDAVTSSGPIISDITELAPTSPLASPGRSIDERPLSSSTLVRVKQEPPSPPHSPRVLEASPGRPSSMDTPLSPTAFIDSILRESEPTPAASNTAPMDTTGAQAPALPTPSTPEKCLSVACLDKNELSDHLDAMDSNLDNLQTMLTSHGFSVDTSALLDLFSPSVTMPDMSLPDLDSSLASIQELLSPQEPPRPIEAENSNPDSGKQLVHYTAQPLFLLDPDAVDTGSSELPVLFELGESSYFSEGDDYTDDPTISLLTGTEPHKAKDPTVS

Cytochrome P450 2C19, sequence (P33261 whole entry): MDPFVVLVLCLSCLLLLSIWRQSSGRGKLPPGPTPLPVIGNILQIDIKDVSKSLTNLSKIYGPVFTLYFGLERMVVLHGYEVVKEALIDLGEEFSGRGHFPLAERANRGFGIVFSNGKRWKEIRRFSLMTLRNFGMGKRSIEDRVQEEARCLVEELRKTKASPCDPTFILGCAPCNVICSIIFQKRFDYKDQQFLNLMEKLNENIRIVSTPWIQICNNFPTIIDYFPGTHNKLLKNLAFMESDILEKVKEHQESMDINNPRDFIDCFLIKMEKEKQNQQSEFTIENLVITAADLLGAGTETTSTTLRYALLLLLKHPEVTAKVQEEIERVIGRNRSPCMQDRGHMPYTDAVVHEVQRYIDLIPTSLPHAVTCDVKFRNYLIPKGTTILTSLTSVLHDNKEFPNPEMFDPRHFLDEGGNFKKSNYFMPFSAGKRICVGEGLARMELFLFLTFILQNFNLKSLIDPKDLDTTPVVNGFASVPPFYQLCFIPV

Row | Structure (SMILES) | AC50 (Cytochrome P450 2C9) | EC50 [1] | EC50 [2] | EC50 (H4) | other results
1 | CCCC[C@H]1C(=O)N(c2ccccc2)N(c2ccc(O)cc2)C1=O | 12.6 µM (inconclusive) |  |  |  | AC50 (Cytochrome P450 2C19): 15.8 µM (inconclusive); AC50 (Cytochrome P450 1A2): 0.001 µM (inconclusive)
2 | CC(=O)C1=NOC(CNc2ncc(C(F)(F)F)cc2Cl)C1 (stereo not given) |  | 15.7 µM (active) | 17 µM (active) | 16.2 µM (active) | 
3 | CC(=O)N1c2ccc(S(=O)(=O)N3CCC(C(=O)NCc4ccccc4Cl)CC3)cc2CC1C (stereo not given) |  | > 120 µM (not active) | > 120 µM (not active) | > 120 µM (not active) | 
4 | CCSc1c(C(=O)NC)ccc2c1C(=O)c1ccccc1C2=O | 10 µM (inconclusive) |  |  |  | AC50 (Cytochrome P450 2C19): 28.2 µM (inconclusive); AC50 (Cytochrome P450 3A4): 12.6 µM (inconclusive)
5 | CC(O)(CS(=O)(=O)c1ccccc1)C(=O)Nc1cccc(C(F)(F)F)c1 (stereo not given) | 35.5 µM (inconclusive) |  |  |  | 
6 | COc1ccc(-c2cc(C(F)(F)F)n3ncc(C(=O)NCC4CCCO4)c3n2)cc1OC (stereo not given) | 7.94 µM (inconclusive) |  |  |  | AC50 (Cytochrome P450 2C19): 14.1 µM (inconclusive); AC50 (Cytochrome P450 1A2): 5.01 µM (inconclusive); AC50 (Cytochrome P450 3A4): 3.55 µM (inconclusive)
7 | Cc1cccc(Cc2nnc(CCC(=O)N3CCCCC3c3nccs3)o2)c1 (stereo not given) |  |  |  |  | EC50 [3]: > 160 µM (inactive); EC50 [4]: > 38 µM (not active)
8 | CCn1c(SCC(=O)Nc2ccc(C(C)=O)cc2)nc2nc3c(cc2c1=O)COC(C)(C)C3 |  | > 120 µM (not active) | 32.9 µM (active) | 12.8 µM (active) | 
9 | CCOc1ccc(NC(=O)C(S)=NC2CCCCC2)cc1 |  | 61.6 µM (active) | 21.1 µM (active) | 11 µM (active) | 
10 | CN(C)c1ncc2nc(-c3ccccc3)c(=O)n(Cc3cccs3)c2n1 | 10 µM (inconclusive) |  |  |  | AC50 (Cytochrome P450 3A4): 15.8 µM (inconclusive)
11 | O=C(NN=C1C2CC3CC1CC(Cl)(C3)C2)c1ccccn1 |  | > 120 µM (not active) | > 120 µM (not active) | > 120 µM (not active) | 
12 | COc1ccc(N2CCN(Cc3nc4c(c(=O)[nH]c(=O)n4C)n3CCCc3ccccc3)CC2)cc1 | 39.8 µM (inconclusive) |  |  |  | AC50 (Cytochrome P450 2C19): 28.2 µM (inconclusive)
13 | COC(=O)CSC1=C(C#N)C(c2cccc(F)c2)CC(=O)N1 (stereo not given) | 0.0282 µM (inconclusive) |  |  |  | AC50 (Cytochrome P450 3A4): 39.8 µM (inconclusive)
14 | COc1ccc(Oc2ncc3nc(C)c(=O)n(-c4ccc(OC)cc4)c3n2)cc1 | 39.8 µM (inconclusive) |  |  |  | 
15 | Cn1c(=O)cnc2cnc(Nc3ccccc3)nc21 | 25.1 µM (inconclusive) |  |  |  | AC50 (Cytochrome P450 2C19): 7.94 µM (inconclusive); AC50 (Cytochrome P450 3A4): 25.1 µM (inconclusive)
16 | CC(O)(CS(=O)(=O)Cc1ccccc1Cl)C(=O)Nc1cccc(C(F)(F)F)c1 (stereo not given) | 11.2 µM (inconclusive) |  |  |  | 
17 | Cc1cc2[nH]c(=O)c(=O)[nH]c2cc1S(=O)(=O)N1CCN(c2ccccc2F)CC1 |  |  |  |  | EC50 [3]: > 150 µM (inactive); EC50 [4]: > 38 µM (not active)
18 | COCCN=C(S)N1C2CCC1CC(NC(=O)NC13CC4CC(CC(C4)C1)C3)C2 (stereo not given) | 14.1 µM (inconclusive) |  |  |  | AC50 (Cytochrome P450 2C19): 20 µM (inconclusive)
19 | O=C(O)/C=C\c1c2ccc(=O)c(O)c-2oc2c(O)c(O)ccc12 | 7.94 µM (inconclusive) |  |  |  | AC50 (Cytochrome P450 2C19): 3.16 µM (inconclusive)
20 | COC(=O)C(CCSC)NC(=O)c1cccc([N+](=O)[O-])c1 (stereo not given) | 2 µM (inconclusive) |  |  |  | 
21 | O=C(c1cc2c(s1)-c1ccccc1OC2)N1CCC2(CC1)OCCO2 |  |  |  |  | EC50 [3]: 43.1 µM (active); EC50 [4]: 2.9 µM (active)
22 | CC(C)CC1NC(=O)N(CC(=O)c2ccc3c(c2)OCCO3)C1=O (stereo not given) |  | 0.298 µM (active) | 1.48 µM (active) | 6.39 µM (active) | 
23 | Cc1nn(CC(=O)c2ccccc2Cl)c(C)c1[N+](=O)[O-] |  | 38.2 µM (active) | 15.8 µM (active) | 25.4 µM (active) | 
24 | CC1=NC(=O)C(N=Nc2cccc(O)c2)N1c1ccccc1 (stereo not given) |  | 15.5 µM (active) | 13.7 µM (active) | 20.2 µM (active) | 

Row | Structure (SMILES) | AC50 (Cytochrome P450 2C9) | EC50 [1] | EC50 [2] | EC50 (H4) | other results
25 | COc1cc(C2C(C#N)=C(N)N(c3ccc(F)cc3)C3=C2S(=O)(=O)CC3)ccc1O (stereo not given) |  |  |  |  | EC50 [3]: > 160 µM (inactive); EC50 [4]: > 38 µM (not active)
26 | CC(=O)N1CCc2cc(S(=O)(=O)NCCC(=O)Nc3ccc4c(c3)OCCO4)ccc21 |  | 17.4 µM (active) | 9.85 µM (active) | 25.6 µM (active) | 
27 | Clc1ccc2c(c1)[C@H]1OCC[C@H]1[C@@H](c1ccco1)N2 |  | 19.9 µM (active) | 10.9 µM (active) | 9.48 µM (active) | 
28 | COc1ccc(COc2cc(-c3cccc(OC)c3)nc3ccc(NC(=O)C(C)C)cc23)cc1 |  | > 120 µM (not active) | > 120 µM (not active) | > 120 µM (not active) | 
29 | CCCn1c(CC)nc([N+](=O)[O-])c1Sc1ccc(F)cc1 |  |  |  |  | EC50 [3]: 16.3 µM (active); EC50 [4]: > 38 µM (not active)
30 | CCOc1ccccc1NC(=O)c1cc(S(=O)(=O)N2CCC3(CC2)OCCO3)ccc1F |  |  |  |  | EC50 [3]: > 160 µM (inactive); EC50 [4]: > 38 µM (not active)
31 | CN1CC2([N+](=O)[O-])CC=C(OCCO)C([N+](=O)[O-])(C1)C2 (stereo not given) |  |  |  |  | EC50 [3]: > 150 µM (inconclusive); EC50 [4]: > 38 µM (not active)
32 | Cc1cccc(CCNc2nc3ccc(C)cc3n3cnnc23)c1 |  | 0.258 µM (active) | 33.2 µM (active) | 7.16 µM (active) | 
33 | N#CCCn1c(=O)c(-c2cccc(C#N)c2)nc2cnc(Oc3cccc(Cl)c3)nc21 | 12.6 µM (inconclusive) |  |  |  | 
34 | Oc1nc(SCc2ccccc2F)nc2ccccc12 |  |  |  |  | EC50 [3]: > 150 µM (inactive); EC50 [4]: 1.26 µM (active)
35 | Cn1c(=O)cc(OCC(=O)NCc2cccnc2)c2ccccc21 | 14.1 µM (inconclusive) |  |  |  | AC50 (Cytochrome P450 1A2): 1.58 µM (inconclusive)
36 | CC(C(=O)c1c[nH]c2ccccc12)N1CCSCC1 (stereo not given) | 31.6 µM (inconclusive) |  |  |  | 
37 | Cc1nn(C(=O)c2ccoc2C)c(N)c1-c1ccccc1 |  | 5.93 µM (active) | 26.9 µM (active) | 21.6 µM (active) | 
38 | CCn1c(Cn2nnc(-c3ccccc3)n2)nnc1SCC(=O)Nc1ccc(C(C)=O)cc1 |  | > 120 µM (not active) | 71.4 µM (active) | 16.1 µM (active) | 
39 | COc1cccc(-c2csc(NC(=O)Nc3ccccc3)n2)c1 |  | > 120 µM (not active) | 11.1 µM (active) | 18.9 µM (active) | EC50 [5]: > 195 µM (not active)
40 | N#CCCn1c(=O)c(-c2cc(F)cc(F)c2)nc2cnc(OCc3ccccc3)nc21 | 3.16 µM (inconclusive) |  |  |  | AC50 (Cytochrome P450 3A4): 15.8 µM (inconclusive)
41 | O=C(O)CCc1ccc(-c2ccc(Cl)cc2)n1CCC(=O)O | 31.6 µM (inconclusive) |  |  |  | 
42 | NC(=NOC(=O)c1cccc([N+](=O)[O-])c1)c1cccnc1 |  | 3.61 µM (active) | 7.46 µM (inconclusive) | > 120 µM (not active) | 
43 | CCOC(=O)c1c(C)n[nH]c1N/N=C/c1cccnc1 |  | > 120 µM (not active) | 14.7 µM (active) | > 120 µM (not active) | 
44 | CC1(C)C2CC=C(/C=N/NC(=O)c3ccc(Cl)cc3)C1C2 (stereo not given) |  | > 120 µM (not active) | 12.4 µM (active) | > 120 µM (not active) | 
45 | O=C(N/N=C/c1ccc(Sc2nc3ccccc3s2)c([N+](=O)[O-])c1)c1ccccn1 | 0.00562 µM (inconclusive) |  |  |  | AC50 (Cytochrome P450 2C19): 7.08 µM (inconclusive); AC50 (Cytochrome P450 3A4): 3.55 µM (inconclusive)
46 | NS(=O)(=O)c1cc2c(cc1Cl)N=C(CSCc1ccccc1)NS2(=O)=O [BENZTHIAZIDE] | 3.98 µM (inconclusive) |  |  |  | 
47 | Cc1cccc(N(C)C(=S)Oc2ccc3ccccc3c2)c1 [TOLNAFTATE] | 1.26 µM (inconclusive) |  |  |  | 

Source: ChEMBL document CHEMBL1201862, “PubChem BioAssay data set” (2004)
